System: NPC PDX-B13
Assay: In vivo study of tumor volume in the NPC PDX-B13 mouse model
Parameters: species or system NOD/SCID mice
Details: week 6, read from FIG. 4
Method: NPC cell lines, C666-1 (EBV positive) and HK-1 (EBV negative), were maintained in RPMI containing 10% fetal bovine serum (FBS). A cell growth assay and animal studies were conducted as described by CL Hsu et al (“Application of a Patient-Derived Xenograft Model in Cytolytic Viral Activation Therapy for Nasopharyngeal Carcinoma.” Oncotarget 6, no. 31 (2015): 31323-34).
PDX models were generated as follows: NPC tumor samples were obtained from patients with local recurrence or metastasis undergoing biopsy or surgical resection. Each sample was immediately cut into smaller pieces of approximately 3-5 mm in diameter and subcutaneously implanted into the flank regions of anesthetized NOD/SCID mice. The xenograft was excised and reimplanted in small pieces into the next passage after the tumor reached 1-2 cm in diameter.

Compound	inhibit PDX-B13 tumor growth (reduce tumor volume)
CN(C)C/C=C/C(=O)Nc1cc2c(Nc3ccc(F)c(Cl)c3)ncnc2cc1O[C@H]1CCOC1 [AFA, Afatinib]	approximately 30%
CC(=O)c1c(C)c2cnc(Nc3ccc(N4CCNCC4)cn3)nc2n(C2CCCC2)c1=O [PAL, Palbociclib]	~70%
